Entries after “also recorded” stand apart in the source; their conditions may differ.
Assays:
[1] = system: Balb/C mice; assay: g-IFN ELISPOT after PMID with HBV sAg/cAg plasmid; assay type: in vivo
[2] = system: Balb/C mice; assay: Anti-sAg and anti-cAg antibody ELISAs after PMID with HBV sAg/cAg plasmid; assay type: in vivo; details: Example 7; either HBV antigen (sAg, cAg); data not shown
[3] = system: Balb/C mice; assay: IL-4 ELISPOT after PMID with HBV sAg/cAg plasmid; assay type: in vivo
[4] = system: Balb/C mice; details: Example 2; prime and boost, HBsAg plasmid with HCMV promoter; FIG. 3
[5] = system: Balb/C mice; assay: IFN-g ELISPOT of spleen cells after HBsAg DNA vaccine immunization; details: Example 2; prime and boost; FIG. 4
[6] = system: Balb/C mice; assay: CD8 IFN-g ELISA of spleen cells after HBsAg DNA vaccine immunization; details: Example 2; prime and boost; FIG. 4
[7] = system: Balb/C mice; assay: ELISA for subclass (IgG1/IgG2a) of HBsAg specific antibody; assay type: in vivo; details: Example 6; HBsAg specific antibody in serum; FIG. 15
[8] = Example 7, summary of both experiments

| Structure (SMILES) | g-IFN secretion ([1]; Example 7, first experiment, highest dose of DNA, delivered right before or right after PMID) | g-IFN secretion ([1]; Example 7, first experiment, highest dose of DNA, given 24 hours after PMID) | g-IFN secretion ([1]; Example 7, first experiment, low doses of DNA, administration 24 hours post PMID compared with other time points) | g-IFN secretion ([1]; Example 7, first experiment, low doses of HBV-encoding DNA, right before, right after or 24 hours post PMID) | g-IFN response with class I-restricted peptide (CD8+ cells) ([1]; Example 7, first experiment, not shown) | frequency of cells which secreted g-IFN in response to antigen ([1]; Example 7, first experiment, sAg peptide library (primarily CD4+ cells), 2 weeks post prime, FIG. 16) | IFN-g ELISPOT response [1, 8] | optimal time point for augmenting g-IFN-secreting cells ([1]; Example 7, time of administration relative to PMID) | antibody titers [2] | IL-4 secretion, as measured by ELISPOT assay ([3]; Example 7, first experiment (prime only), not shown) | EL-4 ELISPOTs [3, 8] | Antibody levels [4] | cellular response, ELISPOTs [5] | cellular response, IFN-g ELISA [6] | ratio of IgG1/IgG2a [7] |
| --- | --- | --- | --- | --- | --- | --- | --- | --- | --- | --- | --- | --- | --- | --- | --- |
| CC(C)Cn1cnc2c(N)nc3ccccc3c21 [imiquimod, 1-(2-methyl-propyl)-1H-imidazo[4,5-c]quinolin-4-amine] | slightly inhibitory | augments PMID | most effective | enhances g-IFN secretion | comaparable responses | enhancement of the frequency of cells which secreted g-IFN | primarily enhanced; also recorded: augments the frequency of g-IFN-secreting cells | about a day and upto 7 days after PMID | little effect; also recorded: did not enhance antibody responses | no effect | little effect | strong reduction in antibody levels | enhanced the responses | enhanced the responses |  |
| CCCCC[C@H](O)/C=C/[C@H]1[C@H](O)CC(=O)[C@@H]1C/C=C\CCCC(=O)O [PGE2] |  |  |  |  |  |  |  |  |  |  |  |  |  |  | does not have the same effect overall |
